These results are taken from US12059472B2 (Bayer Aktiengesellschaft, priority 2016, dated 2024).

Molecules are shown by their SMILES.

Data set [1] in a line: Caco-2 flux assay for cell permeability. The data set is classed as in vitro ADME. Conditions: human; Caco-2, basal to apical, 2 hours. Here is the method:
The cell permeability of a substance can be investigated by means of in vitro testing in a flux assay using Caco-2 cells [M. D. Troutman and D. R. Thakker, Pharm. […] For this purpose, the cells were cultured for 15-16 days on 24-well filter plates. For the determination of permeation, the respective test substance was applied in a HEPES buffer to the cells either apically (A) or basally (B) and incubated for 2 hours. After 0 hours and after 2 hours, samples were taken from the cis and trans compartments. The samples were separated by HPLC (Agilent 1200, Böblingen, Germany) using reverse phase columns. The HPLC system was coupled via a Turbo Ion Spray Interface to a Triple Quadropol mass spectrometer API 4000 (AB SCIEX Deutschland GmbH, Darmstadt, Germany).
Of critical importance for toxophors which are released intracellularly is the permeability from B to A [Papp (B-A)] and the ratio of Papp (B-A) to Papp (A-B) (efflux ratio): the lower this permeability, the slower the active and passive transport processes of the substance through the monolayer of Caco-2 cells.
In general terms: Caco-2 monolayers are a common model of the intestinal barrier.

Data set [2] relates to KPL4: human breast cancer cell line. The experiment in a line: Cytotoxic effect on KPL4 cells (MTT assay). The data set is classed as cell-based. Conditions: Table 2, active metabolites. Here is the method: The analysis of the cytotoxic effects of the ADCs was carried out with various cell lines: • NCI-H292: human mucoepidermoid lung carcinoma cells, ATCC-CRL-1848, standard medium: RPMI 1640 (Biochrom; #FG1215, stab. glutamine)+10% FCS (Sigma; #F2442), TWEAKR-positive; EGFR-positive. • BxPC3: human pancreas carcinoma cells, ATCC-CRL-1687, standard medium: RPMI 1640 (Biochrom; #FG1215, stab. glutamine)+10% FCS (Sigma; #F2442), TWEAKR-positive. • LoVo human colorectal cancer cells, ATCC No. CCL-229, cultivation for MTT assay: standard medium: Kaighn's+L-glutamine (Invitrogen 21127)+10% heat inactivated FCS (from Gibco, No. 10500-064). Cultivation for CTG assay: RPMI 1640 (Biochrom; #FG1215, stab. glutamine)+10% FCS (Sigma #F2442). […]
The cells were cultivated by the standard method, with the growth media specified under C-1a. […] After 96 h, the cell proliferation was detected using the MTT assay (ATCC, Manassas, Virginia, USA, catalogue No. 30-1010K). […] The dye formed was detected at 570 nm (Infinite M1000 pro, Tecan). The measured data were used to calculate the IC50 of the growth inhibition using the DRC (dose response curve). […]
(Tetrazolium dyes change colour on reduction, which living cells bring about.)

Data set [3] deals with SK-HEP-1: human liver cell cancer line. The data set can be described thus: Cytotoxic effect on SK-HEP-1 cells (MTT assay). The data set is classed as cell-based. Conditions: SK-HEP1, Table 2, active metabolites. The procedure: (§1) The cells were cultivated by the standard method as stated by the American Tissue Culture Collection (ATCC) or the Leibniz-Institut DSMZ-Deutsche Sammlung von Mikroorganismen und Zellkulturen GmbH (DSMZ) for the cell lines in question.
The cells were then incubated in an incubator at 37° C. and 5% carbon dioxide. After 48 h, the medium was replaced. […] To this end, the MTT reagent was incubated with the cells for 4 h, followed by lysis of the cells overnight by addition of the detergent. The dye formed was detected at 570 nm (Infinite M1000 pro, Tecan). The measured data were used to calculate the IC50 of the growth inhibition using the DRC (dose response curve). The proliferation of cells which were not treated with test substance but were otherwise identically treated was defined as the 100% figure.

Data set [4] relates to NCI-H292: human mucoepidermoid lung carcinoma cells. The experiment in a line: Cytotoxic effect on NCI-H292 cells (MTT/CTG assay). In kind it is cell-based. The settings on record: Table 2, active metabolites, MTT. The procedure:
as §1
The cells were then incubated in an incubator at 37° C. and 5% carbon dioxide.
The cells were then incubated in an incubator at 37° C. and 5% carbon dioxide. After 48 h, the medium was replaced. […] To this end, the MTT reagent was incubated with the cells for 4 h, followed by lysis of the cells overnight by addition of the detergent. The dye formed was detected at 570 nm (Infinite M1000 pro, Tecan).

The term Papp B→A denotes the apparent permeability from the basolateral to the apical side of a cell layer. In general, IC50 refers to the midpoint of a concentration-inhibition curve.

The compound `CC(C)(C)[C@H](c1cc(-c2cc(F)ccc2F)cn1Cc1ccccc1)N(CC[C@H](N)C(=O)NCCC(=O)N[C@H](CCC(=O)O)C(=O)O)C(=O)CO` [Example M3, N-{(2S)-2-Amino-4-[{(1R)-1-[1-benzyl-4-(2,5-difluorophenyl)-1H-pyrrol-2-yl]-2,2-dimethylpropyl}(glycoloyl)amino]butanoyl}-beta-alanyl-D-glutamic acid] came in with a Papp B→A at 2 h in data set [1] of 0.27 ×10⁻⁶ cm/s. In addition, the IC50 was 173 nM in data set [2], 14.6 nM in data set [3] and 174 nM in data set [4].
